Results from ChEMBL document CHEMBL1201862, “PubChem BioAssay data set” (2004).
Active and inactive are the calls of the source.

Key:
[1] = molecular target: T1, DNA repair protein RAD52 homolog (Homo sapiens, UniProt P43351); type: functional, biochemical
T1 sequence (P43351 whole entry): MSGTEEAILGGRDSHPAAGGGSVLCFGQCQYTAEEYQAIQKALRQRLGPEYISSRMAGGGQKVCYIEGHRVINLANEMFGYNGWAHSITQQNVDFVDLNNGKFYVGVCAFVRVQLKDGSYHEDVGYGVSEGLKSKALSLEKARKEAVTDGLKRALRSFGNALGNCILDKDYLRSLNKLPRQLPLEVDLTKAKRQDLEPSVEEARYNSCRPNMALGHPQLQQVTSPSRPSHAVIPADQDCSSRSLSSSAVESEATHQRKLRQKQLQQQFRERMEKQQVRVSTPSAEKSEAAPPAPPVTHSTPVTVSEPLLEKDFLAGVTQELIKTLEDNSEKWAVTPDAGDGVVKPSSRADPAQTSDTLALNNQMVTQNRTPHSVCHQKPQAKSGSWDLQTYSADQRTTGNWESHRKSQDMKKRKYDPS

[2] = inhibitors of Vif binding to APOBEC3G peptide, primary screen, biochemical, TR-FRET, GST-Vif 1-94, biotin-A3G peptide, dose response retest (AID 1117319); type: functional;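 also: TR-FRET signal of purified GST-Vif binding a biotinylated A3G peptide; inhibitors lower the FRET signal by blocking Vif and A3G binding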
[3] = molecular target: T2, Fatty acid synthase (Homo sapiens, UniProt P49327); experiment: FAS thioesterase domain inhibitors, dose response, biochemical, kinetic fluorescence intensity (AID 624326); type: functional;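 also: rate of fluorescence rise from hydrolysis of a fluorogenic O-methyl fluorescein ester substrate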
[4] = molecular target: T2, Fatty acid synthase; experiment: FAS thioesterase domain inhibitors, dose response, biochemical, endpoint fluorescence intensity, uHTS hits (AID 624327); type: functional;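 also: fluorescence from hydrolysis of an O-methyl fluorescein acyl ester substrate by the enzyme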
[5] = molecular target: T3, DNA repair and recombination protein RAD54-like (Homo sapiens, UniProt Q92698); experiment: inhibitors of human RAD54 branch migration, confirmation, biochemical, fluorescence, cherry-picked samples, dose series (AID 651657); type: functional
T3 sequence (Q92698 whole entry): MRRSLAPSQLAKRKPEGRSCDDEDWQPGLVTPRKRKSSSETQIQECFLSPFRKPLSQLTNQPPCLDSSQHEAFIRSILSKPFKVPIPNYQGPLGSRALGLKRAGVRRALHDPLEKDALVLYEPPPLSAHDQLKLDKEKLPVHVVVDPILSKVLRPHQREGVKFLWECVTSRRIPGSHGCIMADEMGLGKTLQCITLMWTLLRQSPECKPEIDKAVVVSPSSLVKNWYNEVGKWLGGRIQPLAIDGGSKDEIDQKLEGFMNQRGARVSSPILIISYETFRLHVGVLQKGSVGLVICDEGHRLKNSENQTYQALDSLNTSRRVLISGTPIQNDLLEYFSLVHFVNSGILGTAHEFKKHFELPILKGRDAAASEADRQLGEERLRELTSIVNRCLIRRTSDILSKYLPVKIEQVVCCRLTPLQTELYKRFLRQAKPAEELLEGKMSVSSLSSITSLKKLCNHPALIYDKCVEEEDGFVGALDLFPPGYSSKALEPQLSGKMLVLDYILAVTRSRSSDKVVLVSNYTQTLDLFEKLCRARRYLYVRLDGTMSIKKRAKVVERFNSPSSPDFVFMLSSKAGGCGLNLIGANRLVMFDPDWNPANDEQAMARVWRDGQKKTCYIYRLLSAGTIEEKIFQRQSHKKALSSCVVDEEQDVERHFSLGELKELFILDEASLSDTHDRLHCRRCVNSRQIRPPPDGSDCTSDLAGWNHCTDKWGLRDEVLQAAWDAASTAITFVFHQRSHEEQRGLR

[6] = test system: H9c2; experiment: cells; type: functional, cell-based; conditions: Rattus norvegicus, H9c2, Myocardium;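 also: confirmatory concentration-response retest of ultra-high-throughput screening hits for modulation of myocardial damage; cell death induced by hydrogen peroxide oxidative stress; compound pretreatment for 60 min then peroxide exposure for 2 h; potency is for protecting the cells against peroxide damage rather than for killing them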
[7] = molecular target: T4, Leucine aminopeptidase (Plasmodium falciparum 3D7, UniProt Q8IL11); experiment: P. falciparum M17LAP inhibitors, primary screen, biochemical, fluorogenic H-Leu-NHMec substrate, 1536-well (AID 1619); type: functional
T4 sequence (Q8IL11 whole entry): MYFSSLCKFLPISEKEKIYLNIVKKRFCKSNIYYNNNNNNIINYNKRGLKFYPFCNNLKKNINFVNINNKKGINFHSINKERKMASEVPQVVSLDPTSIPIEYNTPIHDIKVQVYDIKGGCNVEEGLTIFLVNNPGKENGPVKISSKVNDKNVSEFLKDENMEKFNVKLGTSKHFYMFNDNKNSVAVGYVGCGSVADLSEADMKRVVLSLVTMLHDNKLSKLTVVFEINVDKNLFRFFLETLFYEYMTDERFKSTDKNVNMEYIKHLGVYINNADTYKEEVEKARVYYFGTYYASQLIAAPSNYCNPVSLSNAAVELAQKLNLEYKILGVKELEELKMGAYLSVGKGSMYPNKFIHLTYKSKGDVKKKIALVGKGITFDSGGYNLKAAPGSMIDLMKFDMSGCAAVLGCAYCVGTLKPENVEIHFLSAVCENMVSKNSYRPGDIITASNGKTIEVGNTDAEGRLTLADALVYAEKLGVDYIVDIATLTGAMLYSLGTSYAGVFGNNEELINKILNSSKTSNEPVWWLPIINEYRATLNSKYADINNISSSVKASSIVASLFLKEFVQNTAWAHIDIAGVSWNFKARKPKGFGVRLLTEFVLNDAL

[8] = molecular target: T5, Apoptotic protease-activating factor 1 (Homo sapiens, UniProt O14727); type: functional
T5 sequence (O14727 whole entry): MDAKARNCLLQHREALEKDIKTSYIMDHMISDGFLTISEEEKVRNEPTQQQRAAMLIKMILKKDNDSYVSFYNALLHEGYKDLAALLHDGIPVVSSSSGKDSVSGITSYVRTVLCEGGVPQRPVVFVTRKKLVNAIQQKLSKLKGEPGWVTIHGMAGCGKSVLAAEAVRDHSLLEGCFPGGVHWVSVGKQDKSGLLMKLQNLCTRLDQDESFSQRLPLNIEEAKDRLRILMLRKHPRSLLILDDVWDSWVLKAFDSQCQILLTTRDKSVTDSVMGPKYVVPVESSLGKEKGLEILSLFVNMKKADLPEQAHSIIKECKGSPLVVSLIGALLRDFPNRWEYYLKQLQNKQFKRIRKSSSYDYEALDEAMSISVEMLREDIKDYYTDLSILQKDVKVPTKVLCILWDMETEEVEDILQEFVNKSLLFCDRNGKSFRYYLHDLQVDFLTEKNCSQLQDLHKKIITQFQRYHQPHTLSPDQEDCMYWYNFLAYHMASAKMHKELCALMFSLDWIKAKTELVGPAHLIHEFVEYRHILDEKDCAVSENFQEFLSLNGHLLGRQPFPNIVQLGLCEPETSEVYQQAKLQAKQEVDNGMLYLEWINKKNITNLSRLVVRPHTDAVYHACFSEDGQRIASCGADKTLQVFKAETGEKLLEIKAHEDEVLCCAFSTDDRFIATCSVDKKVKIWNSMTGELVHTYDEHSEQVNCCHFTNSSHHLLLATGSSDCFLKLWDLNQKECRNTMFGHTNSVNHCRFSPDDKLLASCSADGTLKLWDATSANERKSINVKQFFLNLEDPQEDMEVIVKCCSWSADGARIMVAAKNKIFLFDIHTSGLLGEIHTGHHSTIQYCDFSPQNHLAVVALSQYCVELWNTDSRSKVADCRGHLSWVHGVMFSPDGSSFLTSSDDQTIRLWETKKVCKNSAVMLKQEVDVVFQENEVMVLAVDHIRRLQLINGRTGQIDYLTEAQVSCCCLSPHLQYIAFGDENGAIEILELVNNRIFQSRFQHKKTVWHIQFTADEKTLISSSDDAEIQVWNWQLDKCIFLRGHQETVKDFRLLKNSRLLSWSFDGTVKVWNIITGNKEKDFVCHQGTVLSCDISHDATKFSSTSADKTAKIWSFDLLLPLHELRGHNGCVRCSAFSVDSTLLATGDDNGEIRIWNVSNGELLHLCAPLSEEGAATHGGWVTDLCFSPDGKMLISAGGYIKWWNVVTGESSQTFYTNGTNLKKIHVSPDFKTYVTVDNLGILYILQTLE

[9] = molecular target: 72 kDa type IV collagenase (Homo sapiens, UniProt P08253); experiment: Dose Response validation of uHTS RPN11 inhibitor hits using a MMP-2 Fluorescence assay.; type: functional
[10] = molecular target: Prothrombin (Bos taurus, UniProt P00735); experiment: thrombin inhibition, dose response, biochemical, fluorescence polarization, uHTS hits (AID 602369); type: functional
[11] = molecular target: 26S proteasome non-ATPase regulatory subunit 14 (Homo sapiens, UniProt O00487); experiment: inhibition of proteasome subunit RPN11 – biochemical, fluorescence polarization, uHTS hits, confirmation (AID 602368); type: functional
[12] = molecular target: Heat shock protein HSP 90-alpha (Homo sapiens, UniProt P07900); type: functional, organism-based
[13] = molecular target: Paired box protein Pax-8 (Homo sapiens, UniProt Q06710); experiment: inhibitors of PAX8-driven TPO luciferase reporter, dose response, RMG-I cells, cherry-pick (AID 687027); type: functional, cell-based;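 also: luciferase reporter driven by Pax8 target thyroperoxidase promoter measured by SteadyGlo luminescence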
[14] = PAX2 cell-based inhibition, dose response, selectivity assay for PAX8 inhibitor project, plate reader, dry powder samples (AID 743048); type: functional;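 also: HEK293 cells carrying a WT1 promoter luciferase reporter driven by expressed Pax2; potency is for inhibition of Pax2 driven reporter signal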
[15] = cytotoxicity in OVCAR8 ovarian cancer cells, dose response, PAX8 project, cell-based, plate reader, dry powder samples (AID 743197); type: functional; conditions: OVCAR-8
[16] = cytotoxicity dependent on PAX8, dose response, cell-based, plate reader, dry powder (AID 743049); type: functional

T2 sequence (P49327 whole entry, the tested form may be a part): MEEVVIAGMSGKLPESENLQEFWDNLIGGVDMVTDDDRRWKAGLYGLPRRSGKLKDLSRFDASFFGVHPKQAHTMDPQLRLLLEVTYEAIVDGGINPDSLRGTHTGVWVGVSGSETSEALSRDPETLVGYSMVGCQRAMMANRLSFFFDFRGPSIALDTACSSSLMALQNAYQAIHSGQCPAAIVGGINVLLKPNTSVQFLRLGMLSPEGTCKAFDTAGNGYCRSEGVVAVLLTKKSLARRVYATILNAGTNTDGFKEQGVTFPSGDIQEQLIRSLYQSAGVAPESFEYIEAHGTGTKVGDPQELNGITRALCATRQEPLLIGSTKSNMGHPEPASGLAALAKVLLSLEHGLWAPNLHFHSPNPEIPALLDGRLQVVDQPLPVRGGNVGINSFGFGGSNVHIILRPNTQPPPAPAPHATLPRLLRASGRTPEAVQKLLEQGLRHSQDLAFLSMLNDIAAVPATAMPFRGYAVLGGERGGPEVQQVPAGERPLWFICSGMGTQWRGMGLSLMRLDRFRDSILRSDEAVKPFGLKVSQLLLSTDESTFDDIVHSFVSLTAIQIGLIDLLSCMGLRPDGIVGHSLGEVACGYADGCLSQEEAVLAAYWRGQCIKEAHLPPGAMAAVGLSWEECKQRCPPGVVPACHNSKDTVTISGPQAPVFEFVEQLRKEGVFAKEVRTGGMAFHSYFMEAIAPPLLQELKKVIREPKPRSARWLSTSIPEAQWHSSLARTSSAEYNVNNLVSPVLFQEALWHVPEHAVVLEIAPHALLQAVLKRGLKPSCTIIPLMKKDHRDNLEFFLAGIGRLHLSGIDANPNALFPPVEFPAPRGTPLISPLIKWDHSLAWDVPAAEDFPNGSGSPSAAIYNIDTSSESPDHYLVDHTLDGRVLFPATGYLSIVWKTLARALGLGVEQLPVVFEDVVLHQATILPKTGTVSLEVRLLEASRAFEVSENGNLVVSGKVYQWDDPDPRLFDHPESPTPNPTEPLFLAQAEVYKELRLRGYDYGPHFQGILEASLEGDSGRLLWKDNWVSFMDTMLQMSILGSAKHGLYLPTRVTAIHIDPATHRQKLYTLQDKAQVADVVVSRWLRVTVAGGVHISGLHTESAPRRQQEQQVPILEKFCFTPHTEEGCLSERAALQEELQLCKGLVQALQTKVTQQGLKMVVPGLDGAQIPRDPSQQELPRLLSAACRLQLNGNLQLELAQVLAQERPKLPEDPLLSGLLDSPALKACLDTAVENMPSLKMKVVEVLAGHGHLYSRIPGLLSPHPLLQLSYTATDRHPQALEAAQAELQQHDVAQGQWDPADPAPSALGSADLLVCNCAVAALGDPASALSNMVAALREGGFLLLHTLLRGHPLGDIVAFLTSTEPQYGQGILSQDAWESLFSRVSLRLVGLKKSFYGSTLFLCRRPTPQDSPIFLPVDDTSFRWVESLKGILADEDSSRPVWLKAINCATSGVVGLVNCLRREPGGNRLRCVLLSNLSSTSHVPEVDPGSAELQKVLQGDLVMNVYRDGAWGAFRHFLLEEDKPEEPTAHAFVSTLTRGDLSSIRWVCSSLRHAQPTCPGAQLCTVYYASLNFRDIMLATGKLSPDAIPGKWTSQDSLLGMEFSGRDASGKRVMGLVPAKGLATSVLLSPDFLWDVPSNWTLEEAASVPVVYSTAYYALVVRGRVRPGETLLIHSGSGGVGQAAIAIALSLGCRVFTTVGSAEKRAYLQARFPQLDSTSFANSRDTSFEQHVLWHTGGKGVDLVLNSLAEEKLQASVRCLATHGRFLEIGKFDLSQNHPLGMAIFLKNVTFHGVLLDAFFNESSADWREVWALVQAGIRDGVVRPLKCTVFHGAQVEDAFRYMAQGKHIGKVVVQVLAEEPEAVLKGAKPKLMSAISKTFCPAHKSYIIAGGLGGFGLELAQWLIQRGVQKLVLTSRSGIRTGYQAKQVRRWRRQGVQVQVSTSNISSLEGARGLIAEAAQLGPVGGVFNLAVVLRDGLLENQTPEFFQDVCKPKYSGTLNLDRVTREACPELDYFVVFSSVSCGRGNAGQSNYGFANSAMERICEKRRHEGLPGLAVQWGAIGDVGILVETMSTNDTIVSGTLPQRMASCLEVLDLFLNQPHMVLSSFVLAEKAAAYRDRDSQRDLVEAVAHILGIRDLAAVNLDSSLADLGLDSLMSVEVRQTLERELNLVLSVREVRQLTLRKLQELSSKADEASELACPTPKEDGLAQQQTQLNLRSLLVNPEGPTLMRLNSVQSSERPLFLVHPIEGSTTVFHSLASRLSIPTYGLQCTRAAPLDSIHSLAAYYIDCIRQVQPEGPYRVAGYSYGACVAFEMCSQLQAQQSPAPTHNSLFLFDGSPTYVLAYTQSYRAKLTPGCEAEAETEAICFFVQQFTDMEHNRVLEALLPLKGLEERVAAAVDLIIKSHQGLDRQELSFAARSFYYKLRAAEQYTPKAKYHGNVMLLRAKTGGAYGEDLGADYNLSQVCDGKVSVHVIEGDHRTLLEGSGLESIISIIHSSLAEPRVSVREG
Sequence of 72 kDa type IV collagenase (P08253 whole entry): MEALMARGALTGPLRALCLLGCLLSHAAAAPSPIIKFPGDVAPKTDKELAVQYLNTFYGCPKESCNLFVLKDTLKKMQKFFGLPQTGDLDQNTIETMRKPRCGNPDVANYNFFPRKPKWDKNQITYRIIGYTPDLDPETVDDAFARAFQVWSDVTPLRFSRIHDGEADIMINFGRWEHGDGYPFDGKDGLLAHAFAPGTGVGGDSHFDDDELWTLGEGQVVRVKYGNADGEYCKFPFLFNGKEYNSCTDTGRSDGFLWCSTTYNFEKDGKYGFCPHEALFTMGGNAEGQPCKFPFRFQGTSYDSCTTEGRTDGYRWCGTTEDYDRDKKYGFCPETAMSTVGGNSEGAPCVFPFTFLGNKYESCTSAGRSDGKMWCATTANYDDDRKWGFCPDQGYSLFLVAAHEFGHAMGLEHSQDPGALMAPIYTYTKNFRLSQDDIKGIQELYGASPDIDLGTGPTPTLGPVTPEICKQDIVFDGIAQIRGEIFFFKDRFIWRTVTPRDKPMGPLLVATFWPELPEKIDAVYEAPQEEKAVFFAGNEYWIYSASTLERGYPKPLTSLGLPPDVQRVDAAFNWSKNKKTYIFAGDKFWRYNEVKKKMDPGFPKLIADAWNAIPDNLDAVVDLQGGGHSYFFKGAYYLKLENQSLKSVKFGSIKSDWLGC
Sequence of Paired box protein Pax-8 (Q06710 whole entry): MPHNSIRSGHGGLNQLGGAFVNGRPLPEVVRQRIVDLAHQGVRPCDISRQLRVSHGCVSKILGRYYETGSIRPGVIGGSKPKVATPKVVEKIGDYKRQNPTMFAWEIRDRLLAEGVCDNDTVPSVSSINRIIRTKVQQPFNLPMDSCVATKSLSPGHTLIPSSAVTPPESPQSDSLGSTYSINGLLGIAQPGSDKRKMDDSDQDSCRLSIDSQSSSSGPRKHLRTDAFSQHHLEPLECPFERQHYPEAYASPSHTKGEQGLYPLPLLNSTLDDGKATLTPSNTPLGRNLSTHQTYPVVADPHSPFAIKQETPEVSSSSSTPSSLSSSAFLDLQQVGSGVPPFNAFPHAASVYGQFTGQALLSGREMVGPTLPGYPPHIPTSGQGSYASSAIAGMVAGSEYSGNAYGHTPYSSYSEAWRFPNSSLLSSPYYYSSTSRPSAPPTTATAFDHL
Sequence of 26S proteasome non-ATPase regulatory subunit 14 (O00487 whole entry): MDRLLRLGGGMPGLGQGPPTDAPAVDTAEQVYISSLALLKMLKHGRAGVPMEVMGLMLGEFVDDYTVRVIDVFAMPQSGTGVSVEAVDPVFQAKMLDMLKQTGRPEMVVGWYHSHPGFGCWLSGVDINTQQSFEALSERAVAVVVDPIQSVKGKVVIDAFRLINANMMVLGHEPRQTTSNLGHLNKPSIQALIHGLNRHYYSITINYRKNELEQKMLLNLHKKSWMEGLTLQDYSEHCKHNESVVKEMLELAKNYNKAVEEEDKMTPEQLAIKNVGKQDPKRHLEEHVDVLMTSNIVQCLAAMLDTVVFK

Q: Which AC50 [1] does the source give for `Cc1csc(N2CCN(c3cc4c(cc3Cl)nc(-c3ccncc3)n4CCCN3CCCC3)CC2)n1` here?
A: 4.61 µM (active)

Q: For `COc1ccc(NCc2nnc(SCC(=O)N3CCCc4ccccc43)o2)cc1`, which IC50 [2] is on record?
A: > 100 µM (active)

Q: Which results are given for `CCN(Cc1ccccc1)C(=O)c1cnc2ccc(S(=O)(=O)N(C)CCC#N)cc2c1O`?
A: IC50 [3]: 7.6 µM (active); IC50 [4]: 12 µM (active)

Q: With `CC1(C)CCN(Cc2ccccc2)C1CC#N` (stereo not drawn) as the compound, how does the IC50 [2] read?
A: > 100 µM (active)

Q: Which results are given for `COc1ccc(CCn2c(=N)c(C(=O)NCC3CCCO3)cc3c(=O)n4cccc(C)c4nc32)cc1OC` (stereo not drawn)?
A: AC50 [5]: 14.4 µM (active); IC50 [6]: > 79 µM (inactive)

Q: For `Cc1ccc(C(=O)NCC(=O)OCc2nnc(-c3ccc([N+](=O)[O-])cc3)o2)s1`, which IC50 [3] is on record?
A: 12.7 µM (active)

Q: What about the IC50 [4] of the same compound?
A: 15.1 µM (active)

Q: With `COc1ccc(NC(=O)CSC2CC(=O)N(c3ccc4c(c3)OCCO4)C2=O)cc1` (stereo not drawn) as the compound, how does the IC50 [7] read?
A: 16.1 µM (active)

Q: Which IC50 [7] does the source give for `O=C(CSc1nnc[nH]1)Nc1ccc(Br)cc1F` here?
A: 29.8 µM (active)

Q: Which IC50 [7] does the source give for `COC(=O)c1c(NC(=O)C2C3CCC(O3)C2C(=O)O)sc2c1CCCCCC2` (stereo not drawn) here?
A: 48.9 µM (active)

Q: With `CN(C)CCCNc1nc2cc(-c3ccc(C(=O)N4CCN(C)CC4)cc3)sc2c(=O)n1C` as the compound, how does the AC50 [5] read?
A: 47.7 µM (active)

Q: With `O=C(NCCCCc1ccccc1)c1cccc([N+](=O)[O-])c1` as the compound, how does the IC50 [3] read?
A: 8.43 µM (active)

Q: What about the IC50 [4] of the same compound?
A: 11.1 µM (active)

Q: With `CCOC(=O)c1c(CN(C)C)n(C)c2c(O)c(N=NC(N)=O)c3ccc(Br)cc3c12` as the compound, how does the IC50 [8] read?
A: 12.1 µM (active)

Q: What about the AC50 [1] of the same compound?
A: 11.6 µM (active)

Q: Which IC50 [2] does the source give for `CC1(C)Oc2ccc(C(=O)NC3CCCC3)cc2N(CC(=O)N2CCOCC2)C1=O` here?
A: > 100 µM (active)

Q: Which IC50 [3] does the source give for `CCc1nc2c(OCc3ccc(Cl)cc3Cl)cccn2c1N(C=O)Cc1ccc(OC)cc1` here?
A: 1.46 µM (active)

Q: And the IC50 [4]?
A: 2.45 µM (active)

Q: For `NC(=O)c1c(NC(=S)Nc2ccc(F)cc2)sc2c1CCCC2`, which IC50 [7] is on record?
A: 92 µM (active)

Q: For `CCN1C(=O)N(CC)C(=O)C2(Cc3ccccc3N3CCN(c4ccccc4)CC32)C1=O` (stereo not drawn), which IC50 [2] is on record?
A: > 100 µM (active)

Q: With `O=C(NCCCN1CCOCC1)c1cnn2c(-c3ccccc3)cc(-c3ccccc3)nc12` as the compound, how does the AC50 [5] read?
A: 27 µM (active)

Q: With `CCN(CC)CCCN(C(=O)c1ccc(Br)cc1)c1nc(-c2ccc(OC)cc2)cs1` as the compound, how does the AC50 [1] read?
A: 17.2 µM (active)

Q: What does the source list for `Cc1cc(N=Nc2ccccc2C(=O)O)c(C)c(C)c1O`?
A: IC50 [9]: 43.4 µM (active); IC50 [10]: 34.2 µM (active); IC50 [11]: 25.4 µM (active); AC50 [12]: 4.36 µM (active)

Q: Which AC50 [13] does the source give for `COc1ccc(S(=O)(=O)Nc2ccc3c(c2)CC(=O)N([C@@H](C)CO)C[C@@H](C)[C@@H](CN(C)Cc2ccc(-c4ccccc4)cc2)O3)cc1` here?
A: 24.6 µM (active)

Q: And the AC50 [14]?
A: 42 µM (active)

Q: What about the AC50 [15] of the same compound?
A: > 70 µM (inactive)

Q: What about the AC50 [16] of the same compound?
A: 44.2 µM (active)

Q: With `CCc1cc2c(=O)n(-c3ccc(C)cc3)cnc2s1` as the compound, how does the IC50 [2] read?
A: > 100 µM (active)
